Data taken from US8748453B2, “Substituted heterocyclic compounds as kinases inhibitors and methods of use thereof” (Medolution Limited, priority 2009, dated 2014).

How the values were obtained:
[1] = Pharmacokinetics after IV administration to Sprague-Dawley rats; details: rat, in vivo; for half-life: read-out: mean elimination half-life (T1/2) (converted); for clearance: read-out: mean Clearance (CL) (converted)
ErbB2/HER2 = target: T1, ErbB2/HER2 (Homo sapiens, UniProt P04626); assay: Radiometric kinase assay, ErbB2/HER2; format: biochemical; details: read-out: potency (IC50) over Her-2 assay
T1 construct: Recombinant catalytic domain, amino acids 679-1255, GST tagged, purified from insect cells; GST; host or cells: insect cells
Protocol: (§1) Base Reaction buffer: 20 mM Hepes (pH 7.5), 10 mM MgCl2, 1 mM EGTA, 0.02% Brij35, 0.02 mg/ml BSA, 0.1 mM Na3VO4, 2 mM DTT, 1% DMSO. *Required cofactors are added individually to each kinase reaction
(§2) Prepare indicated substrate in freshly prepared Base Reaction Buffer • Deliver any required cofactors to the substrate solution above • Deliver indicated kinase into the substrate solution and gently mix • Deliver compounds in DMSO into the kinase reaction mixture • Deliver ^33P-ATP (specific activity 0.01 μCi/μl final) into the reaction mixture to initiate the reaction.
ErbB2/HER2—Genbank Accession # X03363. […] Final concentration in assay=50 nM. Substrate: pEY. Peptide sequence: Poly Glu-Tyr, 4:1 ratio. Final concentration in assay=0.2 mg·mL. 2 mM MnCl2 is added as a cofactor to the reaction mixture
(§3) Compounds in accordance with the practice of the present invention were tested in kinase assays employing high throughput radiometric techniques and nanoliter volume technology (Reaction Biology Corporation, Malvern Pa.).

EGFR = target: T2, EGFR (Homo sapiens, UniProt P00533); assay: Radiometric kinase assay, EGFR; format: biochemical; details: read-out: potency (IC50) over EGFR assay
T2 construct: Recombinant catalytic domain, amino acids 668-1210, GST tagged, purified from insect cells; GST; host or cells: insect cells
Protocol: as §1, §2
Activated in vitro via autophosphorylation. Final concentration in assay=4 nM. Substrate: pEY. Peptide sequence: Poly Glu-Tyr, 4:1 ratio. Final concentration in assay=0.2 mg·mL. 2 mM MnCl2 is added as a cofactor to the reaction mixture
as §3

BT-474 = assay: Human tumor cell-line growth assay, BT-474; format: cell-based; details: BT-474 (overexpressing ErbB2), 10-dose, 3-fold dilution starting at 10 μM, read-out: IC50 growth inhibition BT-474
Protocol: (§4) Invention compounds were tested in human tumor cell-line growth assays.

A431 = assay: Human tumor cell-line growth assay, A431; format: cell-based; details: A-431, A431 (overexpressing EGFR), 10-dose, 3-fold dilution starting at 10 μM, read-out: IC50 growth inhibition A431
Protocol: as §4

A549 = assay: Human tumor cell-line growth assay, A549; format: cell-based; details: 10-dose, 3-fold dilution starting at 10 μM, read-out: IC50 growth inhibition A549
Protocol: as §4

NCI-H1650 = assay: Human tumor cell-line growth assay, NCI-H1650; format: cell-based; details: NCI-H1650 (EGFR mutant E746-A750), 10-dose, 3-fold dilution starting at 10 μM, read-out: IC50 growth inhibition NCI-H1650
Protocol: as §4

SKBR3 = assay: Human tumor cell-line growth assay, SKBR3; format: cell-based; details: SK-BR-3, SKBR3 (overexpressing EGFR and ErbB2), 10-dose, 3-fold dilution starting at 10 μM, read-out: IC50 growth inhibition SKBR3
Protocol: as §4

NCI-H1975 = assay: Human tumor cell-line growth assay, NCI-H1975; format: cell-based; details: NCI-H1975 (EGFR mutant L858R/T790M), 10-dose, 3-fold dilution starting at 10 μM, read-out: IC50 growth inhibition NCI-H1975
Protocol: as §4

T2 sequence (P00533 668-1210): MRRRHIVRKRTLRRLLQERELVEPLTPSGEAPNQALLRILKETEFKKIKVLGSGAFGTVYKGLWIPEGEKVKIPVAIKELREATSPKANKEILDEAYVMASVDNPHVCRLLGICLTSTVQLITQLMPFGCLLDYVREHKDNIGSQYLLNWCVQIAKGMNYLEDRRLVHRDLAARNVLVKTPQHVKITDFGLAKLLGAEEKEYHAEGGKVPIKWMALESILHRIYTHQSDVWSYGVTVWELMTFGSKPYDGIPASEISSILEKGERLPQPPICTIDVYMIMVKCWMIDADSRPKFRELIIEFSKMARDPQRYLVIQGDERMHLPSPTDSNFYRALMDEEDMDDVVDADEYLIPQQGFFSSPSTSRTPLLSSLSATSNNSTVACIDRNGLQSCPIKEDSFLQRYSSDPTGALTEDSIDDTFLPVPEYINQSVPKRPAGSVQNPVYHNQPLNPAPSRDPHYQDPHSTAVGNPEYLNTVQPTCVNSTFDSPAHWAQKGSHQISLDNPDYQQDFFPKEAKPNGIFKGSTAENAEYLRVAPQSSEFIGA
T1 sequence (P04626 679-1255): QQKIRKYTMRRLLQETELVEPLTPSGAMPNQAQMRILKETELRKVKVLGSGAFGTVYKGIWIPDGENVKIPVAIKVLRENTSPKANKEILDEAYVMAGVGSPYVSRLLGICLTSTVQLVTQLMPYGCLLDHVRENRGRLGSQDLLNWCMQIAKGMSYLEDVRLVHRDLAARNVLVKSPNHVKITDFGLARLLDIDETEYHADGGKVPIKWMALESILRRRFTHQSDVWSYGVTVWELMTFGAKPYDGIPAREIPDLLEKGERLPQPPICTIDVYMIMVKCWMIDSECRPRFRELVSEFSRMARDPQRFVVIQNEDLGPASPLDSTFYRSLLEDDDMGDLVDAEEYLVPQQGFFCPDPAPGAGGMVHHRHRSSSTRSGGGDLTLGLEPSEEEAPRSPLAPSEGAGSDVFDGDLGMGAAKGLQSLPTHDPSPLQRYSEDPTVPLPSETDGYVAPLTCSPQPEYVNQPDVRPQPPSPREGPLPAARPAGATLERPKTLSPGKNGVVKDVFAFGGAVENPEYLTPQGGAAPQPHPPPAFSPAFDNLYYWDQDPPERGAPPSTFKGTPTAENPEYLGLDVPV

| half-life [1] [h] | IC50 (ErbB2/HER2) [nM] | clearance [1] [mL/min/kg] | IC50 (EGFR) [nM] | IC50 (BT-474) [nM] | IC50 (A431) [nM] | IC50 (A549) [nM] | IC50 (NCI-H1650) [nM] | IC50 (SKBR3) [nM] | IC50 (NCI-H1975) [nM] | SMILES |
| --- | --- | --- | --- | --- | --- | --- | --- | --- | --- | --- |
| 6.59 | – | – | – | – | – | – | – | – | – | [2H]C([2H])([2H])N(C/C=C/C(=O)Nc1cc2c(Nc3ccc(OCc4ccccn4)c(Cl)c3)c(C#N)cnc2cc1OCC)C([2H])([2H])[2H] [Compound A, (E)-N-{4-[3-chloro-4-(2-pyridinylmethoxy)aniline]-3-cyano-7-ethoxy-6-quinolinyl}-4-(dimethyl-d6-amino)-2-butenamide] |
| 8.76 | < 1000 | 47.1 | < 1000 | – | – | – | – | – | – | [2H]C([2H])([2H])N(C/C=C/C(=O)Nc1cc2c(Nc3cccc(C#C)c3)c(C#N)cnc2cc1OCC)C([2H])([2H])[2H] [Compound B, (E)-N-(3-cyano-7-ethoxy-4-(3-ethynylphenylamino)quinolin-6-yl)-4-(dimethyl-d6-amino)but-2-enamide] |
| 5.37 | < 1000 | 59.7 | < 1000 | < 1000 | < 1000 | < 1000 | < 10000 | < 1000 | < 10000 | C#Cc1cccc(Nc2c(C#N)cnc3cc(OCC)c(NC(=O)/C=C/CN(C)C)cc23)c1 [Compound C, (E)-N-(3-cyano-7-ethoxy-4-(3-ethynylphenylamino)quinolin-6-yl)-4-(dimethylamino)but-2-enamide] |
| – | < 1000 | – | < 1000 | – | – | – | – | – | – | [2H]C([2H])([2H])N(C/C=C/C(=O)Nc1cc2c(Nc3ccc(OCc4ccccn4)c(Cl)c3)c(C#N)cnc2cc1OCCOC)C([2H])([2H])[2H] [Example 7] |
| 5.28 | – | – | – | – | – | – | – | – | – | CCOc1cc2ncc(C#N)c(Nc3ccc(OCc4ccccn4)c(Cl)c3)c2cc1NC(=O)/C=C/CN(C)C [HKI272, reference compound] |
